Measured values: US12427120B2, “Compositions comprising guaifenesin and flavour compounds containing an isovanillyl group” (SYMRISE AG, priority 2018, dated 2025)
Values joined by “and” are separate entries in the source; they are usually repeats but may differ in a detail not shown here. Equal entries are not always repeated. Marks after values point to notes of the source that are not given here.

Assays:
[1] = tested on: guaifenesin-induced bitterness perception; assay: Sensory panel test of guaifenesin-induced bitterness perception (sip and spit, scale 0 to 100); format: in vivo, human; details: trained panel n=20 to 30
Description: To verify the effect of hesperetin and phyllodulcin on guaifenesin-induced bitterness perception, an aqueous solution of 1.3 g/l guaifenesin (1) was tested against an aqueous solution containing 1.3 g/l guaifenesin and 100 mg/l hesperetin (2) or 7 mg/l phyllodulcin (3) or 100 mg/l homoeriodictyol as comparison (4). The test was conducted as a randomized comparison test in a trained sensory panel (n=20 to 30) via a sip and spit procedure. The panellists tasted both solutions in a blinded fashion and rated bitterness on a scale of 0 to 100.

HGT-1 cells = assay: Guaifenesin-induced acid (proton) secretion in HGT-1 cells; format: cell-based, Human; details: for change in proton secretory activity of HGT-1 cells compared to 10 mM guaifenesin alone: 30 μM co-incubated with 10 mM guaifenesin, from 10 min onwards
From the text: Human gastric tumour cell line 1 (HGT-1; Laboisse C. L.; Augeron C.; Couturier-Turpin M. H.; Gespach C.; Cheret A. M.; Potet F., Characterization of a newly established human gastric cancer cell line HGT-1 bearing histamine H2-receptors, Canc. Res., 1982, 42, 1541 to 1548) is a suitable screening tool for detecting the interaction of bitter agents and bitter modulating substances (Liszt, K. I.; Hans, J.; Ley, J. P.; Kock, E.; Somoza, V., Characterization of bitter compounds via modulation of proton secretion in human gastric parietal cells in culture, J. Agric. Food Chem., 2018, 66 (10), 2295-2300.). Therefore, the effect of hesperetin and phyllodulcin on guaifenesin-induced acid secretion in the HGT-1 cell line was determined to predict the modulation of guaifenesin-induced bitterness by hesperetin and phyllodulcin. To this aim, HGT-1 cells were cultured under standard conditions and passaged at ca. 80% confluence. […] HGT-1 cells were pre-loaded with (acetyloxy)methyl-3-(acetyloxy)-10-(dimethylamino)-3′-oxo-spiro[7H-benzo[c]xanthene-7,1′(3H)-isobenzofuran]-ar′-carboxylate and incubated in 130 mM NaCl 130, 4.7 mM KCl, 1.3 mM CaCl2), 1.2 mM MgSO4, 1.2 mM KH2PO4, 11.7 mM glucose, 10 mM HEPES 10, 20 μM 4,4′-Diisothiocyanatostilbene-2,2′-disulfonic acid disodium and 20 μM 5-(N-Ethyl-N-isopropyl)amiloride at pH 7.4. Fluorescence recordings were performed with an excitation wavelength of 488 nm and monitoring the emission wavelengths of 580 nm and 640 nm, respectively, each with a 20 nm bandwidth. […]
The data in Table 1 and Table 2 are presented as mean±SEM derived from 3 biological replicates and 6 to 9 technical replicates. Outliers were identified using the Nalimov test, statistical significance was tested one-way ANOVA with Tukey's range test for multiple comparisons and Bonferroni correction, establishing the threshold for significance at p<0.01. Accordingly, data are marked with *(p<0.007), **(p<0.001) or ***(p<0.0001). Control: untreated cells

guaifenesin bitterness = details: 200 ppm (200 mg/l, 0.2 mg/ml) HED against 13 mg/ml guaifenesin; cited from earlier work
[2] = 100 mg/l (racemic) in aqueous 1.3 g/l guaifenesin versus 1.3 g/l guaifenesin
[3] = 30 μM flavour compound co-incubated with 10 mM guaifenesin, time-point 0 min
[4] = 30 μM flavour compound co-incubated with 10 mM guaifenesin, time-point 5 min
[5] = 30 μM flavour compound co-incubated with 10 mM guaifenesin, time-point 10 min
[6] = 30 μM flavour compound co-incubated with 10 mM guaifenesin, time-point 15 min
[7] = 30 μM flavour compound co-incubated with 10 mM guaifenesin, time-point 20 min
[8] = 30 μM flavour compound co-incubated with 10 mM guaifenesin, time-point 25 min
[9] = 30 μM flavour compound co-incubated with 10 mM guaifenesin, time-point 30 min

SMILES	Modulation versus control (relative difference in bitter ratings) [1, 2]	change in proton secretory activity of HGT-1 cells compared to 10 mM guaifenesin alone (HGT-1 cells)	proton secretory activity (log 2 transformed ratio of treated versus untreated cells), mean (HGT-1 cells; [3])	proton secretory activity (log 2 transformed ratio of treated versus untreated cells), mean (HGT-1 cells; [4])	proton secretory activity (log 2 transformed ratio of treated versus untreated cells), mean (HGT-1 cells; [5])	proton secretory activity (log 2 transformed ratio of treated versus untreated cells), mean (HGT-1 cells; [6])	proton secretory activity (log 2 transformed ratio of treated versus untreated cells), mean (HGT-1 cells; [7])	proton secretory activity (log 2 transformed ratio of treated versus untreated cells), mean (HGT-1 cells; [8])	proton secretory activity (log 2 transformed ratio of treated versus untreated cells), mean (HGT-1 cells; [9])	reduction in guaifenesin bitterness (guaifenesin bitterness)	proton secretory activity (log 2 transformed ratio of treated versus untreated cells), mean (HGT-1 cells; 10 mM guaifenesin alone, time-point 0 min)	proton secretory activity (log 2 transformed ratio of treated versus untreated cells), mean (HGT-1 cells; 10 mM guaifenesin alone, time-point 5 min)	proton secretory activity (log 2 transformed ratio of treated versus untreated cells), mean (HGT-1 cells; 10 mM guaifenesin alone, time-point 10 min)	proton secretory activity (log 2 transformed ratio of treated versus untreated cells), mean (HGT-1 cells; 10 mM guaifenesin alone, time-point 15 min)	proton secretory activity (log 2 transformed ratio of treated versus untreated cells), mean (HGT-1 cells; 10 mM guaifenesin alone, time-point 20 min)	proton secretory activity (log 2 transformed ratio of treated versus untreated cells), mean (HGT-1 cells; 10 mM guaifenesin alone, time-point 25 min)	proton secretory activity (log 2 transformed ratio of treated versus untreated cells), mean (HGT-1 cells; 10 mM guaifenesin alone, time-point 30 min)	Modulation versus control (relative difference in bitter ratings) ([1]; 7 mg/l (98 weight %, 95 mol % enantiomeric purity) in aqueous 1.3 g/l guaifenesin versus 1.3 g/l guaifenesin)
COc1ccc([C@@H]2CC(=O)c3c(O)cc(O)cc3O2)cc1O (racemic) [hesperetin, (2S)-/(2R)-5,7-dihydroxy-2-(3-hydroxy-4-methoxyphenyl)-4-chromanone]	−25%	significant decrease	−0.132	0.05735***	−0.04329*	0.03955***	0.002334***	0.01577***	0.02592***	–	–	–	–	–	–	–	–	–
COc1cc([C@@H]2CC(=O)c3c(O)cc(O)cc3O2)ccc1O (racemic) [homoeriodictyol, (2S)-/(2R)-5,7-Dihydroxy-2-(4-hydroxy-3-methoxyphenyl)-4-chromanone, reference compound]	−12%	–	–	–	–	–	–	–	–	about 40%	–	–	–	–	–	–	–	–
COc1ccccc1OCC(O)CO (stereo not drawn) [guaifenesin, 3-(2-methoxyphenoxy-)1,2-propanediol]	–	–	–	–	–	–	–	–	–	–	0.2711 and 0.2596	0.2378 and 0.2475	0.2801 and 0.187	0.2178 and 0.2259	0.323 and 0.265	0.3953 and 0.1861	0.2706 and 0.2473	–
COc1ccc([C@H]2Cc3cccc(O)c3C(=O)O2)cc1O [phyllodulcin, (3S)-/(3R)-8-hydroxy-3-(3-hydroxy-4-methoxy-phenyl)isochroman-1-one]	–	significant decrease	−0.08165*	0.0579***	0.07294***	−0.04172	0.08512*	−0.1469	0.1433***	–	–	–	–	–	–	–	–	−15%
